Consider 46 compounds from PubChem BioAssay (NCI).

The structures appear in SMILES notation. Values joined by “and” are separate entries in the source; they are usually repeats but may differ in a detail not shown here. Equal entries are not always repeated.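 Tested at 5 concentrations; 48 h exposure; 96-well plates; endpoints linearly interpolated, else capped at highest concentration. GI50 = concentration required for 50% inhibition of growth. Definition used: TGI = concentration required for complete inhibition of growth.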

For the assay, the system named is MDA-MB-468 breast. In words: inhibition of tumour cell growth, NCI panel, 48 h.
With `COc1cc(-c2nn(-c3cccc(NC(=O)c4ccccc4)c3)cc2-c2ccncc2)ccc1Cl`, the GI50 was 349 nM and the TGI stood at 3420 nM.

With `O=C1c2ccccc2C(=O)c2c(/C=C\N3CCCCC3)ccnc21`, the GI50 is 12900 nM and the TGI stood at 26800 nM.

`CCCCCCCCCCSC(=N)N` (tested in a mixture with another compound): the GI50 is 2100 nM and the TGI is 4860 nM.

Take `COc1ccccc1NC(=O)c1cc2cc(Br)ccc2cc1O`: the GI50 is 2790 nM and the TGI is 7870 nM.

Consider `O=C1OCC2=C1C(c1cccc(Br)c1)c1cc3c(cc1N2CCO)OCCO3` (stereo unspecified), for which the GI50 was 25.8 nM and the TGI stood at 181 nM.

Turning to `Nc1nc2[nH]cc(CCc3ccc(C(=O)N[C@@H](CCC(=O)O)C(=O)O)cc3)c2c(=O)[nH]1`, the GI50 is 2570 nM and the TGI is greater than 100000 nM.

As to `COCCn1cc(-c2nc(-c3cc4cccnc4[nH]3)cs2)c2cc(OC)ccc21`, the GI50 is 31.7 nM and the TGI is 192 nM.

As to `CNC(=O)c1cc(Oc2ccc3nc(NC(=O)c4ccc(CN5CCCN(C)CC5)c(C(F)(F)F)c4)sc3c2)ccn1`, the GI50 is 1190 nM and the TGI was 2590 nM.

As to `Cc1cc(Nc2ccc(C)c(Cl)c2)n2nc(C(F)(F)F)nc2n1`, the GI50 is 18700 nM and the TGI turned out to be 61600 nM.

For the compound `CN1CCN(c2ccc(Nc3ncc(Cl)c(NC[C@@H]4CCCO4)n3)cc2)CC1`, the GI50 is 2180 nM and the TGI came to 6640 nM.

On to `CC(C)(C)[Si](C)(C)OC1[C@@H](O[Si](C)(C)C(C)(C)C)[C@@H](CNC(=O)NC(=O)C(F)(F)F)O[C@H]1n1cnc2c(NC(=O)Nc3ccccc3)ncnc21` (stereo partly specified), for which the GI50 was 2180 nM and the TGI amounted to 9160 nM.

`CC(=C(c1ccc(OCCN2CCCCC2)cc1)c1ccc(OCCN2CCCCC2)cc1)c1ccc(Cl)cc1`: the GI50 was 402 nM and the TGI was determined as 809 nM.

With `COc1c2ccccc2c(OC)c2[nH]c(=O)ccc12`, the GI50 was 4770 nM and the TGI was greater than 91700 nM.

With `O=C(Nc1cccc(C(F)(F)F)c1)Nc1cccc(C(F)(F)F)c1`, the GI50 was 675 nM and the TGI was determined as 3170 nM.

Regarding `CCN1C(=O)N(CC)C2SC(N/N=C/C=C/c3ccccc3OC)=NC21` (stereo unspecified), the GI50 was 326 nM and the TGI was 48900 nM.

Turning to `COc1cc(-c2nc3sccn3c2-c2ccnc(NCCNS(=O)(=O)c3ccc(F)cc3)n2)ccc1F`, the GI50 was 2720 nM and the TGI is greater than 100000 nM.

As to `CCN(CC)c1ccc(/C=N/NC(=O)c2ccc(S(N)(=O)=O)cc2)c(O)c1`, the GI50 is 258 nM and the TGI came to 1140 nM.

For the compound `Cc1ccc(S(=O)(=O)N2C3C=CC(C3)[C@@H]2C(Cl)(Cl)Cl)cc1` (stereo partly specified), the GI50 was 6320 nM and the TGI amounted to 33100 nM.

Take `C=C1C(=O)O[C@H]2[C@H]1CC/C(CNC(=O)c1cc3ccccc3[nH]1)=C\CC[C@@]1(C)O[C@@H]21`: the GI50 was 1050 nM and the TGI is 3600 nM.

`CN1CCN(C(=O)COc2ccc(C34CC5CC(CC(C5)C3)C4)cc2)CC1`: the GI50 was 9120 nM and the TGI was found to be 23100 nM.

In the case of `CC(=O)N[C@@H](Cc1ccc(OP(=O)(O)O)cc1)C(=O)N[C@H]1CCC(=O)N2CCC[C@@H](C(=O)Nc3cccc4ccccc34)N2C1=O`, the GI50 was greater than 25000 nM and the TGI is greater than 25000 nM.

Regarding `COC(=O)/C=C/c1cc(OC(C)=O)c2c(c1)[C@@H](C(=O)OC)[C@H](c1ccc(OC(C)=O)c(OC(C)=O)c1)O2`, the GI50 is 380 nM and the TGI turned out to be 13700 nM.

Regarding `CCCn1cnc2c(c1=N)C(c1ccc(F)cc1)c1sc3c(CC)cccc3c1O2` (stereo unspecified), the GI50 is 350 nM and the TGI is greater than 100000 nM.

As for `C#CC(=O)N(c1ccc(OC)cc1OC)C(C(=O)NCC(=O)OCC)c1cccs1` (stereo unspecified), the GI50 is 316 nM and the TGI was determined as 1170 nM.

As for `C=CC(=O)Nc1cc(Nc2nccc(-c3cn(C)c4ccccc34)n2)c(OC)cc1N(C)CCN(C)C`, the GI50 was 27.1 nM and 47.2 nM; the TGI is 332 nM.

As to `COC(=O)[C@]12CC[C@@H](C)[C@H](C)[C@@H]1C1=CC[C@@H]3[C@@]4(C)C[C@@H](O)[C@H](O)[C@@](C)(CO)[C@@H]4[C@H](O)C[C@@]3(C)[C@]1(C)CC2`, the GI50 was 10500 nM and the TGI was found to be 24800 nM.

For `O=C(Nc1nn2c(-c3cc(C(F)(F)F)cc(C(F)(F)F)c3)nnc2s1)C1CCCC1`, the GI50 is 356 nM and the TGI came out at 4350 nM.

Turning to `CN(C)CC(O)c1ccc(/C=C/c2ccc(Cl)cc2)cc1` (stereo unspecified), the GI50 is 1750 nM and the TGI stood at 3830 nM.

For `CC(C)[C@@H]1NC(=O)[C@]2(C)CSC(=N2)c2ccnc(c2)CNC(=O)C[C@@H](/C=C/CCS)OC1=O`, the GI50 was 569 nM.

Take `COc1ccc(C2c3cc4c(cc3OC3(OC)COC(=O)C23)OCO4)c(OC)c1` (stereo unspecified): the GI50 was 9240 nM and the TGI is greater than 100000 nM.

With `CC1(C)[C@@H](NOCCCN)CC[C@]2(C)[C@H]3C(=O)C=C4[C@@H]5C[C@](C)(C(=O)O)CC[C@]5(C)CC[C@@]4(C)[C@]3(C)CC[C@@H]12`, the GI50 is 2360 nM and the TGI is 5450 nM.

For `COc1ccc2ncnc(Nc3ccc(OCc4ccccc4)cc3)c2c1`, the GI50 is 2770 nM and the TGI was 9080 nM.

In the case of `C=C1C[C@H](O)[C@H](Br)C(C)(C)[C@@]12CCC(C)=C(Cl)C2`, the GI50 was 36.9 nM and the TGI was determined as 397 nM.

On to `CCNC(=O)C#Cc1ccc2c(C(=Nc3ccc(CN(C)C)cc3)c3ccccc3)c(O)[nH]c2c1`, for which the GI50 was 62.1 nM and the TGI was found to be 914 nM.

With `c1ccc(-c2n(Cc3ccc4ccccc4n3)cc[n+]2Cc2ccc3ccccc3c2)cc1`, the GI50 is 222 nM and the TGI came to 1090 nM.

On to `Cc1ccc(NC2=C3CCCCC3OC2=O)cc1` (stereo unspecified), for which the GI50 was 21900 nM and the TGI was greater than 100000 nM.

Regarding `CCCCCCOc1ccc(/C=N/Nc2cc(C)nc3ccc(Cl)cc23)cc1`, the GI50 is 1650 nM and the TGI came to 3130 nM.

With `CCOC(=O)n1cc(C2=C(c3ccc(OC)c(OC)c3)COC2=O)c2ccccc21`, the GI50 is 35.7 nM and the TGI was greater than 100000 nM.

Regarding `COc1ccc(C(c2cc(OC)c(OC)c(OC)c2)n2cncn2)cc1O` (stereo unspecified), the GI50 is 371 nM and the TGI was greater than 100000 nM.

Regarding `C#Cc1cccc(Nc2nc3cc([N+](=O)[O-])ccc3nc2Nc2ccc(O)cc2)c1`, the GI50 was 1430 nM and the TGI was 3260 nM.

As to `NC(=S)N/N=C1\c2cc(Cl)ccc2-c2c1cc(Cl)cc2[N+](=O)[O-]`, the GI50 was 3070 nM and the TGI is 9030 nM.

Regarding `OC(c1cc(C(F)(F)F)nc2c(C(F)(F)F)cccc12)C1CCCCN1` (stereo unspecified), the GI50 was 1630 nM and the TGI amounted to 3370 nM.

On to `NCCNCCNCCN`, for which the GI50 is greater than 100000 nM and the TGI is greater than 100000 nM.

Consider `Cc1ccc(-c2nc(N3CCNCC3)c3oc(-c4ccc(C)cc4)nc3n2)cc1`, for which the GI50 is 3290 nM and the TGI is greater than 21800 nM.

Consider `COc1cc(/C=C2\CN(S(=O)(=O)c3ccc(C)cc3)C/C(=C\c3cc(CN4CCCC4)c(O)c(OC)c3)C2=O)cc(CN2CCCC2)c1O`, for which the GI50 was 1150 nM and the TGI is 2650 nM.

As to `COc1ccc(Cn2c(Br)c3c(c2Br)-c2nc(N)sc2CC3)cc1`, the GI50 was 1900 nM and the TGI was 14000 nM.
